Measured values reported in ChEMBL document CHEMBL3112558 (Bioorg Med Chem Lett, 2014).

Tests used:
[1] = system: Human immunodeficiency virus 1; assay: Antiviral activity against HIV1 by cell based assay; assay type: functional, organism-based
Protease = Protease (Human immunodeficiency virus 1, UniProt Q9YQ12); assay: Inhibition of HIV-1 protease
Cytochrome P450 3A4 = Cytochrome P450 3A4 (Homo sapiens, UniProt P08684); assay: Inhibition of human CYP3A4-mdiated midazolam 1'-hydroxylase activity
Cytochrome P450 2D6 = Cytochrome P450 2D6 (Homo sapiens, UniProt P10635); assay: Inhibition of human CYP2D6
Cytochrome P450 2C19 = Cytochrome P450 2C19 (Homo sapiens, UniProt P33261); assay: Inhibition of human CYP2C19
Cytochrome P450 1A2 = biological target: T1, Cytochrome P450 1A2 (Homo sapiens, UniProt P05177); assay: Inhibition of human CYP1A2
T1 sequence (P05177 whole entry): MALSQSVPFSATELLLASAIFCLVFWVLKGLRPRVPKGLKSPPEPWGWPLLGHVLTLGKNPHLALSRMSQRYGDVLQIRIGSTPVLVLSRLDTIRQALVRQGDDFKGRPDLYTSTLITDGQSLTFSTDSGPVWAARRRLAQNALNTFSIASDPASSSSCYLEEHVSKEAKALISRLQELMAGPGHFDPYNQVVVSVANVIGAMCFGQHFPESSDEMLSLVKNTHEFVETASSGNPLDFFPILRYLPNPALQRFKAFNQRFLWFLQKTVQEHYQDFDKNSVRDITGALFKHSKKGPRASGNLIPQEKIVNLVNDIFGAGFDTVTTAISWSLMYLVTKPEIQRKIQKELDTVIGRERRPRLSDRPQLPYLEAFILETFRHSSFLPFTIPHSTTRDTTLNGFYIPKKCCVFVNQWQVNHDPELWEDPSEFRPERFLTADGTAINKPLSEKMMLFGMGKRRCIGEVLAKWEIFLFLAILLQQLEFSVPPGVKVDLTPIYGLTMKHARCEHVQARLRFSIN

Cytochrome P450 2C9 = Cytochrome P450 2C9 (Homo sapiens, UniProt P11712); assay: Inhibition of human CYP2C9
CYP3A4 = CYP3A4 (Homo sapiens, UniProt P08684); assay: Ratio of compound IC50 to ritonavir IC50 for human CYP3A4-mdiated midazolam 1'-hydroxylase activity; assay type: ADME; settings: probe midazolam, read-out: Ratio IC50
CYP3A4, sequence (P08684 whole entry): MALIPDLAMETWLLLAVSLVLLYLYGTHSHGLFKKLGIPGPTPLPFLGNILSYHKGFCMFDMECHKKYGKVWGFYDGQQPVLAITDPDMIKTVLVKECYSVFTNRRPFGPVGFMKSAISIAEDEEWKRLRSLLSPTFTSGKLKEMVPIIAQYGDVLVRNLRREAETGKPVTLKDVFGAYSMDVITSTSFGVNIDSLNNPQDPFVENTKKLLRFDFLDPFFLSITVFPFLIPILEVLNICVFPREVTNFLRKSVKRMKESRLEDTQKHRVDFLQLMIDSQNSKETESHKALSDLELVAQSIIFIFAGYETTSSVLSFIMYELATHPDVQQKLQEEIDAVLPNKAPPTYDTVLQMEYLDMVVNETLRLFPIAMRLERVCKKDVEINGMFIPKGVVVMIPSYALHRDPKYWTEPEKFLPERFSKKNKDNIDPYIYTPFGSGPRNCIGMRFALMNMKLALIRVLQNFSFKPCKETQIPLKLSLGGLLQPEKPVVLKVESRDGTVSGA

Cytochrome P450 2D6, sequence (P10635 whole entry): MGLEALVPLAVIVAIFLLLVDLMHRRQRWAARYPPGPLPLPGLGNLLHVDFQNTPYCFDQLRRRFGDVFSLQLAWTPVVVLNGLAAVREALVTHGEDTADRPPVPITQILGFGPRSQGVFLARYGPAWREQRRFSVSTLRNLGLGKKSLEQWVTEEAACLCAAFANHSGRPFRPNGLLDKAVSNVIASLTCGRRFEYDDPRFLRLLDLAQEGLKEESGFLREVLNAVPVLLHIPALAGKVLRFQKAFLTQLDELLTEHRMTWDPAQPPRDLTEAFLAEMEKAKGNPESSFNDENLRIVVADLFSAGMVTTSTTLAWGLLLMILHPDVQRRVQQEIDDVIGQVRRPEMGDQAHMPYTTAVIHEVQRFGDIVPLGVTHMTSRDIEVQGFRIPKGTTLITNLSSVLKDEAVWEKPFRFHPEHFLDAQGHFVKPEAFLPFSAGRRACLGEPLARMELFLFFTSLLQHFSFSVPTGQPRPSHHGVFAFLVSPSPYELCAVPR
Cytochrome P450 2C9, sequence (P11712 whole entry): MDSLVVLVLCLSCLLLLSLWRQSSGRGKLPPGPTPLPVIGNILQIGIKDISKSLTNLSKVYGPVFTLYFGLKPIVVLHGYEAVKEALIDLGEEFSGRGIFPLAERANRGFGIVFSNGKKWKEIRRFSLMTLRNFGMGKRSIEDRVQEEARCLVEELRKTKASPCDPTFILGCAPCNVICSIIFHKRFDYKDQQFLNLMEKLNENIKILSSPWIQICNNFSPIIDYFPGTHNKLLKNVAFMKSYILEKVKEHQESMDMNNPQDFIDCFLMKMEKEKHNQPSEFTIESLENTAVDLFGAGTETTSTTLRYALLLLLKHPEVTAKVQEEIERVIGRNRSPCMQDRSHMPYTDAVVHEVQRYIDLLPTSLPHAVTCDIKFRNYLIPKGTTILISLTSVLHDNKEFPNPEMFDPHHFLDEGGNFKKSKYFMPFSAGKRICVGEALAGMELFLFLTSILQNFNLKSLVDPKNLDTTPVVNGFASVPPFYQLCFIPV
Cytochrome P450 2C19, sequence (P33261 whole entry): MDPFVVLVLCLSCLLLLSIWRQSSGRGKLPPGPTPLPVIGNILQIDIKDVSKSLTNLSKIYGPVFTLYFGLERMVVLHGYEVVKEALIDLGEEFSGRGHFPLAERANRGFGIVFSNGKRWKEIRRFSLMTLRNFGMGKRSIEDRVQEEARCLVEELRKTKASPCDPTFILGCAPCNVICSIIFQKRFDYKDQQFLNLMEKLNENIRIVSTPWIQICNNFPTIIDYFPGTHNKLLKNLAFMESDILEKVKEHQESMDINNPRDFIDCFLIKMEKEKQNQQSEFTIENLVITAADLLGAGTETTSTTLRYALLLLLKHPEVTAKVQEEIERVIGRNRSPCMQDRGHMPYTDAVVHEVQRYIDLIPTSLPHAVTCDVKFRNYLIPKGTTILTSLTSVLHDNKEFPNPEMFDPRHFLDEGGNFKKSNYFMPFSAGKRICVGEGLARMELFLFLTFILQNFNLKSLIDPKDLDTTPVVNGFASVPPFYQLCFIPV
Protease, sequence (Q9YQ12 whole entry): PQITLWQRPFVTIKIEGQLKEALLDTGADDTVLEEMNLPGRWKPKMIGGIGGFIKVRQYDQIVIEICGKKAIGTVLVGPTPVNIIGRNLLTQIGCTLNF
Cytochrome P450 3A4, sequence (P08684 whole entry): as the sequence (P08684 whole entry) above

EC50 [1]	IC50 (Protease)	SMILES	further results
0.7 µM	0.386 µM	CC(C)[C@H](NC(=O)N(C)Cc1cncs1)C(=O)N[C@H](CC[C@H](Cc1ccccc1)NC(=O)OCc1cncs1)Cc1ccccc1	IC50 (Cytochrome P450 3A4): 0.08 µM
10 µM	0.01 µM	CC(C)c1nc(CN(C)C(=O)N[C@@H](CC(=O)O)C(=O)N[C@H](CC[C@H](Cc2ccccc2)NC(=O)OCc2cncs2)Cc2ccccc2)cs1	–
5 µM	0.03 µM	CC(C)c1nc(CN(C)C(=O)N[C@@H](Cn2cccn2)C(=O)N[C@H](CC[C@H](Cc2ccccc2)NC(=O)OCc2cncs2)Cc2ccccc2)cs1	–
0.75 µM	0.55 µM	CC(C)c1nc(CN(C(=O)N[C@H](C(=O)N[C@H](CC[C@H](Cc2ccccc2)NC(=O)OCc2cncs2)Cc2ccccc2)C(C)C)C2CC2)cs1	IC50 (Cytochrome P450 3A4): 0.21 µM
2.5 µM	1.41 µM	CC(C)c1nc(CN(C(=O)N[C@@H](CO)C(=O)N[C@H](CC[C@H](Cc2ccccc2)NC(=O)OCc2cncs2)Cc2ccccc2)C2CC2)cs1	–
20 µM	> 30 µM	CC(C)c1nc(CN(C)C(=O)N[C@@H](CCN(C)C)C(=O)N[C@H](CC[C@H](Cc2ccccc2)NC(=O)OCc2cncs2)Cc2ccccc2)cs1	–
> 30 µM	> 30 µM	CC(C)[C@H](NC(=O)N(C)Cc1cscn1)C(=O)N[C@@H](CC[C@@H](Cc1ccccc1)NC(=O)OCc1cncs1)Cc1ccccc1	IC50 (Cytochrome P450 3A4): 0.12 µM
0.4 µM	0.035 µM	Cc1nc(CN(C)C(=O)N[C@H](C(=O)N[C@H](CC[C@H](Cc2ccccc2)NC(=O)OCc2cncs2)Cc2ccccc2)C(C)C)cs1	–
> 30 µM	11.8 µM	CC(C)c1nc(CN(C)C(=O)N[C@@H](COCc2ccccc2)C(=O)N[C@H](CC[C@H](Cc2ccccc2)NC(=O)OCc2cncs2)Cc2ccccc2)cs1	–
20 µM	19.3 µM	O=C(N[C@H](CC[C@H](Cc1ccccc1)NC(=O)[C@H](CO)NC(=O)N(Cc1cncs1)C1CC1)Cc1ccccc1)OCc1cncs1	–
> 30 µM	> 30 µM	CNCC[C@H](NC(=O)N(C)Cc1csc(C(C)C)n1)C(=O)N[C@H](CC[C@H](Cc1ccccc1)NC(=O)OCc1cncs1)Cc1ccccc1	–
> 10 µM	3 µM	CC(C)c1nc(CN(C)C(=O)N[C@@H](Cc2c[nH]cn2)C(=O)N[C@H](CC[C@H](Cc2ccccc2)NC(=O)OCc2cncs2)Cc2ccccc2)cs1	–
> 30 µM	> 30 µM	CC(C)c1nc(CN(C)C(=O)N[C@@H](Cc2cn(C)cn2)C(=O)N[C@H](CC[C@H](Cc2ccccc2)NC(=O)OCc2cncs2)Cc2ccccc2)cs1	–
3 µM	–	CC(C)c1nc(CN(C)C(=O)NC(CN(C)C)C(=O)N[C@H](CC[C@H](Cc2ccccc2)NC(=O)OCc2cncs2)Cc2ccccc2)cs1 (some centres not stated)	–
2.5 µM	–	CN(Cc1cncs1)C(=O)NCCC(=O)N[C@H](CC[C@H](Cc1ccccc1)NC(=O)OCc1cncs1)Cc1ccccc1	IC50 (Cytochrome P450 3A4): 0.13 µM
> 30 µM	> 30 µM	CC(C)c1nc(CN(C)C(=O)N[C@@H](CO)C(=O)N[C@@H](CC[C@@H](Cc2ccccc2)NC(=O)OCc2cncs2)Cc2ccccc2)cs1	–

EC50 [1]	IC50 (Protease)	SMILES	further results
> 30 µM	> 30 µM	CC(C)c1nc(CN(C)C(=O)N[C@@H](Cc2cnc[nH]2)C(=O)N[C@@H](CC[C@@H](Cc2ccccc2)NC(=O)OCc2cncs2)Cc2ccccc2)cs1	IC50 (Cytochrome P450 2D6): 0.4 µM; IC50 (Cytochrome P450 2C9): 4.7 µM; IC50 (Cytochrome P450 2C19): 2.2 µM; IC50 (Cytochrome P450 1A2): 15 µM
> 30 µM	8 µM	CC(C)c1nc(CN(C)C(=O)N[C@@H](CCNS(C)(=O)=O)C(=O)N[C@H](CC[C@H](Cc2ccccc2)NC(=O)OCc2cncs2)Cc2ccccc2)cs1	–
4 µM	3.59 µM	CC(C)[C@H](NC(=O)N(Cc1cscn1)C1CC1)C(=O)N[C@H](CC[C@H](Cc1ccccc1)NC(=O)OCc1cncs1)Cc1ccccc1	selectivity ratio (CYP3A4): 80; IC50 (Cytochrome P450 3A4): < 0.1 µM
0.8 µM	0.242 µM	CC(C)[C@H](NC(=O)N(C)Cc1cscn1)C(=O)N[C@H](CC[C@H](Cc1ccccc1)NC(=O)OCc1cncs1)Cc1ccccc1	IC50 (Cytochrome P450 3A4): 0.14 µM
> 30 µM	> 30 µM	CC(=O)NCC[C@H](NC(=O)N(C)Cc1csc(C(C)C)n1)C(=O)N[C@@H](CC[C@@H](Cc1ccccc1)NC(=O)OCc1cncs1)Cc1ccccc1	IC50 (Cytochrome P450 2D6): 0.8 µM; IC50 (Cytochrome P450 2C9): 15.5 µM; IC50 (Cytochrome P450 2C19): > 25 µM; IC50 (Cytochrome P450 1A2): > 25 µM
2.7 µM	0.039 µM	CC(C)c1nc(CN(C)C(=O)N[C@@H](CCO)C(=O)N[C@H](CC[C@H](Cc2ccccc2)NC(=O)OCc2cncs2)Cc2ccccc2)cs1	–
> 30 µM	> 30 µM	O=C(N[C@@H](CC[C@@H](Cc1ccccc1)NC(=O)[C@H](CO)NC(=O)N(Cc1cncs1)C1CC1)Cc1ccccc1)OCc1cncs1	–
1.5 µM	0.05 µM	CC(C)c1nc(CN(C)C(=O)N[C@@H](CO)C(=O)N[C@H](CC[C@H](Cc2ccccc2)NC(=O)OCc2cncs2)Cc2ccccc2)cs1	–
12 µM	4.3 µM	CN(Cc1cncs1)C(=O)N[C@@H](CO)C(=O)N[C@H](CC[C@H](Cc1ccccc1)NC(=O)OCc1cncs1)Cc1ccccc1	–
0.65 µM	–	COC[C@H](NC(=O)N(C)Cc1csc(C(C)C)n1)C(=O)N[C@H](CC[C@H](Cc1ccccc1)NC(=O)OCc1cncs1)Cc1ccccc1	–
> 30 µM	> 30 µM	CC(C)c1nc(CN(C)C(=O)N[C@@H](CCN)C(=O)N[C@H](CC[C@H](Cc2ccccc2)NC(=O)OCc2cncs2)Cc2ccccc2)cs1	IC50 (Cytochrome P450 2D6): 0.8 µM; IC50 (Cytochrome P450 2C9): > 25 µM; IC50 (Cytochrome P450 2C19): > 25 µM; IC50 (Cytochrome P450 1A2): > 25 µM
> 30 µM	> 30 µM	CC(C)c1nc(CN(C)C(=O)N[C@@H](CCCCN)C(=O)N[C@H](CC[C@H](Cc2ccccc2)NC(=O)OCc2cncs2)Cc2ccccc2)cs1	–
1 µM	0.143 µM	CC(C)c1nc(CN(C)C(=O)N[C@@H](CC(N)=O)C(=O)N[C@H](CC[C@H](Cc2ccccc2)NC(=O)OCc2cncs2)Cc2ccccc2)cs1	–
18 µM	2 µM	CC(=O)NCC[C@H](NC(=O)N(C)Cc1csc(C(C)C)n1)C(=O)N[C@H](CC[C@H](Cc1ccccc1)NC(=O)OCc1cncs1)Cc1ccccc1	–
0.05 µM	–	CC(C)c1nc(CN(C)C(=O)N[C@H](C(=O)N[C@@H](Cc2ccccc2)C[C@H](O)[C@H](Cc2ccccc2)NC(=O)OCc2cncs2)C(C)C)cs1 [RITONAVIR]	–

SMILES	EC50 [1]	IC50 (Protease)	further results
CC(C)c1nc(CN(C)C(=O)N[C@@H](CCN2CCOCC2)C(=O)N[C@H](CC[C@H](Cc2ccccc2)NC(=O)OCc2cncs2)Cc2ccccc2)cs1 [COBICISTAT]	> 30 µM	> 30 µM	IC50 (Cytochrome P450 2D6): 9.2 µM; IC50 (Cytochrome P450 2C19): > 25 µM; IC50 (Cytochrome P450 1A2): > 25 µM
CC(C)c1nc(CN(C)C(=O)N[C@H](CCN2CCOCC2)C(=O)N[C@H](CC[C@H](Cc2ccccc2)NC(=O)OCc2cncs2)Cc2ccccc2)cs1	> 30 µM	> 30 µM	IC50 (Cytochrome P450 2D6): 3.1 µM; IC50 (Cytochrome P450 2C19): 1.3 µM; IC50 (Cytochrome P450 1A2): > 25 µM
